Assay results reported in patent US9950002B2, “Nanoparticles/theranostic vehicles” (Regents of the University of Minnesota, priority 2013, dated 2018).

System: BBMVE cell monolayer challenged with DutchAβ40
Assay: Cytokines inhibition study (IL-6, IL-1β, TNF-α ELISA)
Format: cell-based, bovine
Settings: 24 hr; TNV=1.74 mg/ml, DutchAβ40=25 μg/ml, cyclophosphamide=3.05 mg/ml
Protocol: At the end of 24 hour treatment, the luminal or abluminal solutions of the control and the treated Transwells® was assayed for IL-6, IL-1β and TNF-α using cytokine enzyme linked immunosorbent assay (ELISA) kit (Thermo Scientific, Rockford, Ill.). The cytokine levels secreted by the control BBMVE cell monolayer incubated with hanks balanced salt solution (HBSS) were used as the baseline values.

O=P1(N(CCCl)CCCl)NCCCO1 (stereo not shown) [cyclophosphamide]
secretion of IL-6, IL-1β and TNF-α triggered by DutchAβ40, luminal side: significant decrease
